{
  "source": "patent US9840513B2",
  "about": "(AbbVie S.à.r.l., priority 2015, dated 2017)",
  "target": "T1, F508delCFTR cell surface expression in CFBE41o-F508delCFTR-HRP cells (Homo sapiens, UniProt P13569, DEL508-508)",
  "T1 construct": "fused on or other part: Horseradish peroxidase (HRP) reporter inserted in the fourth exofacial (extracellular) loop of CFTR; expression is doxycycline-inducible",
  "T1 sequence (P13569 with tags, fused parts or gaps DEL508-508 limits assumed)": "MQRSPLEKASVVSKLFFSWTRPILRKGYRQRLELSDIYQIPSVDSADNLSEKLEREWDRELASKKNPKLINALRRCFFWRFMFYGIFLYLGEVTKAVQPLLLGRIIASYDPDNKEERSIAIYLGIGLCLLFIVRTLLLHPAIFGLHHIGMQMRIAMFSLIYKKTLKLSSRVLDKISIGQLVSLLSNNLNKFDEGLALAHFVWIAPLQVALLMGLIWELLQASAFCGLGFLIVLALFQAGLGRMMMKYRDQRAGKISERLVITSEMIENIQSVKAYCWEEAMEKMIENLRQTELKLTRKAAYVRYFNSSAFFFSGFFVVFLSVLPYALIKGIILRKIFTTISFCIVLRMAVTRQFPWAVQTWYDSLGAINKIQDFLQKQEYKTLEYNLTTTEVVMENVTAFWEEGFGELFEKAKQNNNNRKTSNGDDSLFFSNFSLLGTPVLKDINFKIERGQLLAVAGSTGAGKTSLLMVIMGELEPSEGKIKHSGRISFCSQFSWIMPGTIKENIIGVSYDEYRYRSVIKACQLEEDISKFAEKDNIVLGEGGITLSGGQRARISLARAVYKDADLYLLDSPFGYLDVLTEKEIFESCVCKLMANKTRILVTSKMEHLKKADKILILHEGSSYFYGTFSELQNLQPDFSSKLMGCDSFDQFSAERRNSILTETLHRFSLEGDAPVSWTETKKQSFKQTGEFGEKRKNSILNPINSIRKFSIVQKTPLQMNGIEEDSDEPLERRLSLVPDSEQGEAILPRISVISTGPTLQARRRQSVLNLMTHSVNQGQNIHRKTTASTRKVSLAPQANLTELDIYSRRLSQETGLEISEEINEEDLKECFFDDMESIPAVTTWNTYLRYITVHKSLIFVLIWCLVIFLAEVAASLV",
  "T1 sequence (P13569 919-1480 limits assumed, stated change not applied)": "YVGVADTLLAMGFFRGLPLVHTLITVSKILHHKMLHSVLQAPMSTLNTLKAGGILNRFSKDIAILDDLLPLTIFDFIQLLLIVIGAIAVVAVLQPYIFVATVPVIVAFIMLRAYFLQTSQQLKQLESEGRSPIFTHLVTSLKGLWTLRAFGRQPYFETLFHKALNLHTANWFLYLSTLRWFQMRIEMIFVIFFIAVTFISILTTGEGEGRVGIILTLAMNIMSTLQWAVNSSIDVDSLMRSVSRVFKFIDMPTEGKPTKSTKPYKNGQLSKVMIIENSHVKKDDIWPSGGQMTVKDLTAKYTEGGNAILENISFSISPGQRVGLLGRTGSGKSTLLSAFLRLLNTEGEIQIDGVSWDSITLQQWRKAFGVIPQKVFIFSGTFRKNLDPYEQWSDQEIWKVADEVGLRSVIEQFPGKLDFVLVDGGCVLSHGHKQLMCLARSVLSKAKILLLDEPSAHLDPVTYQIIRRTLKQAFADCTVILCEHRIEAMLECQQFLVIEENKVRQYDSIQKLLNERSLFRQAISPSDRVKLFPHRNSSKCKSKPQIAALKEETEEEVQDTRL",
  "test": "Cell Surface Expression-Horse Radish Peroxidase (CSE-HRP) Assay",
  "assay_type": "cell-based",
  "settings": "for EC50: CFBE41o-F508delCFTR-HRP cells, 18-24 hours at 33° C., 8-point curve, highest concentration 20 μM; for Maximum % activity (%): maximum at any tested concentration, normalized to on-plate positive control (3 μM)",
  "procedure,_shortened": "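CFBE41o- cells with HRP-tagged F508delCFTR, expression induced by 0.5 μg/mL doxycycline for 72 h at 37 °C, then compound for 18-24 h at 33 °C (8-point, 3-fold, top 20 μM). Surface HRP measured by luminol luminescence; % activity normalised to 3 μM positive-control corrector; EC50 from variable-slope sigmoidal fit, three replicate plates.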",
  "data": [
    {"smiles": "Cc1ccc(NC(=O)C2(C)CCc3cc4c(cc32)OC(F)(F)O4)nc1-c1cccc(C(=O)O)c1", "note": "(centres unmarked) [Example 51, 3-{6-[(2,2-difluoro-5-methyl-6,7-dihydro-2H,5H-indeno[5,6-d][1,3]dioxole-5-carbonyl)amino]-3-methylpyridin-2-yl}benzoic acid]", "values": [
      {"measurement": "EC50", "value": 0.93, "unit": "µM"},
      {"measurement": "Maximum % activity (%)", "value": 153, "unit": "%"}
    ]},
    {"smiles": "CC(C)(CO)[C@@H]1Cc2cc(NC(=O)[C@@]3(C)COc4cc5c(cc43)OC(F)(F)O5)c(F)cc2N1C[C@@H](O)CO", "note": "(single isomer, unassigned) [Example 141]", "values": [
      {"measurement": "EC50", "value": 0.96, "unit": "µM"},
      {"measurement": "Maximum % activity (%)", "value": 39, "unit": "%"}
    ]},
    {"smiles": "C[C@]1(C(=O)Nc2cccc(N3CCC(c4ccc(F)cc4)C3)n2)COc2cc3c(cc21)OC(F)(F)O3", "note": "(stereo partly drawn) [Example 114, (7R)-2,2-difluoro-N-{6-[3-(4-fluorophenyl)pyrrolidin-1-yl]pyridin-2-yl}-7-methyl-6,7-dihydro-2H-furo[2,3-f][1,3]benzodioxole-7-carboxamide]", "values": [
      {"measurement": "EC50", "value": 0.75, "unit": "µM"},
      {"measurement": "Maximum % activity (%)", "value": 98, "unit": "%"}
    ]},
    {"smiles": "COC(=O)c1ccc(-c2cccc(NC(=O)C3(C)COc4cc5c(cc43)OC(F)(F)O5)c2)cc1", "note": "(centres unmarked) [Example 66, methyl 3′-[(2,2-difluoro-7-methyl-6,7-dihydro-2H-furo[2,3-f][1,3]benzodioxole-7-carbonyl)amino][1,1′-biphenyl]-4-carboxylate]", "values": [
      {"measurement": "EC50", "value": 4.11, "unit": "µM"},
      {"measurement": "Maximum % activity (%)", "value": 160, "unit": "%"}
    ]},
    {"smiles": "C[C@]1(C(=O)Nc2cccc(F)n2)COc2cc3c(cc21)OC(F)(F)O3", "note": "[Example 85, (7R)-2,2-difluoro-N-(6-fluoropyridin-2-yl)-7-methyl-6,7-dihydro-2H-furo[2,3-f][1,3]benzodioxole-7-carboxamide]", "values": [
      {"measurement": "EC50", "value": 6.69, "unit": "µM"},
      {"measurement": "Maximum % activity (%)", "value": 90, "unit": "%"}
    ]},
    {"smiles": "CC1(C(=O)Nc2cccc(N3CC[C@@H](C(=O)O)C3)n2)COc2cc3c(cc21)OC(F)(F)O3", "note": "(stereo partly drawn) [Example 8, (3R)-1-{6-[(2,2-difluoro-7-methyl-6,7-dihydro-2H-furo[2,3-f][1,3]benzodioxole-7-carbonyl)amino]pyridin-2-yl}pyrrolidine-3-carboxylic acid]", "values": [
      {"measurement": "EC50", "value": 1.47, "unit": "µM"},
      {"measurement": "Maximum % activity (%)", "value": 126, "unit": "%"}
    ]},
    {"smiles": "Cc1ccc(NC(=O)[C@@]2(C)CCc3c2ccc2c3OCO2)cc1-c1cccc(C(=O)O)c1", "note": "(single isomer, unassigned) [Example 38]", "values": [
      {"measurement": "EC50", "value": 4.56, "unit": "µM"},
      {"measurement": "Maximum % activity (%)", "value": 22, "unit": "%"}
    ]},
    {"smiles": "COc1ccc2c(c1)O[C@@H](c1ccc(C(=O)NCCS(C)(=O)=O)cn1)C[C@H]2NC(=O)[C@@]1(C)COc2cc3c(cc21)OC(F)(F)O3", "note": "[Example 230, 6-[(2R,4R)-4-{[(7R)-2,2-difluoro-7-methyl-6,7-dihydro-2H-furo[2,3-f][1,3]benzodioxole-7-carbonyl]amino}-7-methoxy-3,4-dihydro-2H-1-benzopyran-2-yl]-N-[2-(methanesulfonyl)ethyl]pyridine-3-carboxamide]", "values": [
      {"measurement": "EC50", "value": 0.06, "unit": "µM"},
      {"measurement": "Maximum % activity (%)", "value": 115, "unit": "%"}
    ]},
    {"smiles": "C[C@]1(C(=O)Nc2ccc(N3CCCC3)cn2)COc2cc3c(cc21)OC(F)(F)O3", "note": "[Example 80, (7R)-2,2-difluoro-7-methyl-N-[5-(pyrrolidin-1-yl)pyridin-2-yl]-6,7-dihydro-2H-furo[2,3-f][1,3]benzodioxole-7-carboxamide]", "values": [
      {"measurement": "EC50", "value": 4.75, "unit": "µM"},
      {"measurement": "Maximum % activity (%)", "value": 147, "unit": "%"}
    ]},
    {"smiles": "CCOC(=O)[C@H]1CC[C@H]([C@@H]2C[C@H](NC(=O)[C@@]3(C)COc4cc5c(cc43)OC(F)(F)O5)c3ccc(OC(F)F)cc3O2)CC1", "note": "[Example 159, ethyl trans-4-[(2S,4S)-7-(difluoromethoxy)-4-{[(7R)-2,2-difluoro-7-methyl-6,7-dihydro-2H-furo[2,3-f][1,3]benzodioxole-7-carbonyl]amino}-3,4-dihydro-2H-1-benzopyran-2-yl]cyclohexane-1-carboxylate]", "values": [
      {"measurement": "EC50", "value": 1.02, "unit": "µM"},
      {"measurement": "Maximum % activity (%)", "value": 82, "unit": "%"}
    ]}
  ]
}
